From US9511058B2, “Methods for using carboxamide, sulfonamide and amine compounds” (Rigel Pharmaceuticals, Inc., priority 2010, dated 2016)

Each compound was assayed against AMPK (assay: AMPK activation, enzyme-linked immunosorbent assay). Settings: compounds of Table 1 (Table 6).
Type: biochemical
In the case of `N#Cc1ccc(CN2CCC(NC(=O)c3cc4ccc(OC5CCN(c6ccc(C(F)(F)F)cc6)CC5)cc4o3)CC2)cc1` [1-90, N-(1-(4-cyanobenzyl)piperidin-4-yl)-6-(1-(4-(trifluoromethyl)phenyl)piperidin-4-yloxy)benzofuran-2-carboxamide], the EC50 is reported as < 0.1 µM.
Compound `O=C(N[C@@H]1CCN(Cc2cccnc2)C1)c1cc2cc(OC3CCN(c4ccc(C(F)(F)F)cc4)CC3)ccc2o1` [1-123, (R)-N-(1-(pyridin-3-ylmethyl)pyrrolidin-3-yl)-5-(1-(4-(trifluoromethyl)phenyl)piperidin-4-yloxy)benzofuran-2-carboxamide] has an EC50 of 0.1 to 0.5 µM.
`O=C(NC1CCN(Cc2ccncc2)CC1)c1cncc(OC2CCN(c3ccc(C(F)(F)F)cc3)CC2)c1` [1-14, N-(1-(pyridin-4-ylmethyl)piperidin-4-yl)-5-(1-(4-(trifluoromethyl)phenyl)piperidin-4-yloxy)nicotinamide] was tested, and the EC50 was < 0.1 µM.
`O=C(O)c1ccc(CN2CCC(NC(=O)c3ccc(OC4CCN(c5ccc(C(F)(F)F)cc5)CC4)nc3)CC2)cc1` [1-46, 4-((4-(6-(1-(4-(trifluoromethyl)phenyl)piperidin-4-yloxy)nicotinamido)piperidin-1-yl)methyl)benzoic acid] was tested, and the EC50 was 1 to 5 µM.
Compound `O=C(NC1CCN(Cc2ccccc2)CC1)c1cc2cc(OC3CCN(Cc4cccc(C(F)(F)F)c4)CC3)ccc2o1` [1-73, N-(1-benzylpiperidin-4-yl)-5-(1-(3-(trifluoromethyl)benzyl)piperidin-4-yloxy)benzofuran-2-carboxamide] has an EC50 of 0.5 to 1 µM.
For `N#Cc1ccc(CN2CCC(NC(=O)c3cc(OC4CCN(c5ccc(C(F)(F)F)cc5)CC4)ccn3)CC2)cc1` [1-28, N-(1-(4-cyanobenzyl)piperidin-4-yl)-4-(1-(4-(trifluoromethyl)phenyl)piperidin-4-yloxy)picolinamide], the EC50 was < 0.1 µM.
With `N#Cc1ccc(CN2CCC(NC(=O)c3ccc(OC4CCN(c5ccc(C#N)cc5)CC4)cn3)CC2)cc1` [1-2, N-(1-(4-cyanobenzyl)piperidin-4-yl)-5-(1-(4-cyanophenyl)piperidin-4-yloxy)picolinamide] the EC50 was < 0.1 µM.
`O=C(NC1CCN(Cc2ccccn2)CC1)c1cc2ccc(OC3CCN(c4ccc(OC(F)(F)F)cc4)CC3)cc2o1` [1-92, N-(1-(pyridin-2-ylmethyl)piperidin-4-yl)-6-(1-(4-(trifluoromethoxy)phenyl)piperidin-4-yloxy)benzofuran-2-carboxamide] was tested, and the EC50 was 0.5 to 1 µM.
`CC(C)(C)OC(=O)N1CCC(NC(=O)c2cc3cc(OC4CCN(Cc5ccc(C#N)cc5)CC4)ccc3o2)CC1` [1-113, tert-butyl 4-(5-(1-(4-cyanobenzyl)piperidin-4-yloxy)benzofuran-2-carboxamido)piperidine-1-carboxylate] gave an EC50 of 0.1 to 0.5 µM.

Same assay, conditions: compounds of Table 2 (Table 7)
In the case of `O=C(NC1CCN(S(=O)(=O)c2ccc(F)cc2)CC1)c1ccc2[nH]c3c(c2c1)CN(Cc1ccc(C(F)(F)F)cc1)CC3` [2-28, N-(1-(4-fluorophenyl-sulfonyl)piperidin-4-yl)-2-(4-(trifluoro-methyl)benzyl)-2,3,4,5-tetrahydro-1H-pyrido [4,3-b]indole-8-carboxamide], the EC50 is reported as 1 to 5 µM.
In the case of `N#Cc1ccc(CN2CCC(NC(=O)c3ccc4[nH]c5c(c4c3)CN(S(=O)(=O)c3cccnc3)CC5)CC2)cc1` [2-26, N-(1-(4-cyanobenzyl)piperidin-4-yl)-2-(pyridin-3-ylsulfonyl)-2,3,4,5-tetrahydro-1H-pyrido[4,3-b] indole-8-carboxamide], the EC50 is reported as 10 to 50 µM.

Same assay, conditions: compounds of Table 3 (Table 8)
In the case of `N#Cc1ccc(C(=O)N2CC3CC2CN3C(=O)c2nc3ccc(OC4CCN(c5ccc(C(F)(F)F)cc5)CC4)cc3o2)cc1` (stereo not drawn) [3-12, 4-(5-(6-(1-(4-(trifluoromethyl)phenyl)piperidin-4-yloxy)benzo[d]oxazole-2-carbonyl)-2,5-diazabicyclo[2.2.1]heptane-2-carbonyl)benzonitrile], the EC50 is reported as < 0.1 µM.
In the case of `N#Cc1ccc(CN2CCC(NC(=O)c3nc4ccc(OC5CCN(c6ccc(C(F)(F)F)cc6)CC5)cc4o3)CC2)cc1` [3-2, N-(1-(4-cyanobenzyl)piperidin-4-yl)-6-(1-(4-(trifluoromethyl)phenyl)piperidin-4-yloxy)benzo[d]oxazole-2-carboxamide], the EC50 is reported as < 0.1 µM.
In the case of `N#Cc1ccc(CN2CCC(NC(=O)c3cn4ccc(OC5CCN(c6ccc(C(F)(F)F)cc6)CC5)cc4n3)CC2)cc1` [3-18, N-(1-(4-cyanobenzyl)piperidin-4-yl)-7-(1-(4-(trifluoromethyl)phenyl)piperidin-4-yloxy)imidazo[1,2-a]pyridine-2-carboxamide], the EC50 is reported as < 0.1 µM.

Same assay, conditions: compounds of Table 4 (Table 9)
In the case of `N#Cc1ccc(CN2CCC(NC(=O)c3ccc(C(=O)N4CCN(Cc5ccc(C(F)(F)F)cc5)CC4)cn3)CC2)cc1` [4-3, N-(1-(4-cyanobenzyl)piperidin-4-yl)-5-(4-(4-(trifluoromethyl)benzyl)piperazine-1-carbonyl)picolinamide], the EC50 is reported as < 0.5 µM.
In the case of `O=C(N[C@H]1CCN(Cc2ccc(C(F)(F)F)cc2)C1)c1ccc(C(=O)N2CCN(c3ccc(Cl)cc3)CC2)cn1` [4-8, 5-(4-(4-chlorophenyl)piperazine-1-carbonyl)-N-(1-(4-(trifluoromethyl)benzyl)pyrrolidin-3-yl)picolinamide], the EC50 is reported as 1 to 5 µM.

Same assay, conditions: compounds of Table 5 (Table 10)
In the case of `Cc1ccc(CN2CCC(Oc3ccc(C(=O)NC4CCN(Cc5ccc(F)cc5)CC4)cc3Cl)CC2)cc1` [5-68, 3-chloro-N-(1-(4-fluorobenzyl)piperidin-4-yl)-4-(1-(4-methylbenzyl)piperidin-4-yloxy)benzamide], the EC50 is reported as < 1 µM.
In the case of `O=C(NC1CCN(Cc2ccccc2)CC1)c1ccc(OC2CCN(Cc3ccc(F)c(F)c3)CC2)c(F)c1` [5-69, N-(1-benzylpiperidin-4-yl)-4-(1-(3,4-difluorobenzyl)piperidin-4-yloxy)-3-fluorobenzamide], the EC50 is reported as < 1 µM.
For `N#Cc1ccc(N2CCC(Oc3ccc(C(=O)NC4CCN(Cc5ccc(Cl)cc5)CC4)cc3F)CC2)cc1` [5-81, N-(1-(4-chlorobenzyl)piperidin-4-yl)-4-(1-(4-cyanophenyl)piperidin-4-yloxy)-3-fluorobenzamide], the EC50 was < 1 µM.
With `O=C(NC1CCN(Cc2ccccc2)CC1)c1ccc(OC2CCN(Cc3ccc(F)cc3)CC2)c(F)c1` [5-61, N-(1-benzylpiperidin-4-yl)-3-fluoro-4-(1-(4-fluorobenzyl)piperidin-4-yloxy)benzamide] the EC50 was < 1 µM.
In the case of `CC(C)(C)OC(=O)N1CCC(NC(=O)c2ccc(OC3CCN(c4ccc(C(F)(F)F)cc4)CC3)c(F)c2)CC1` [5-26, tert-butyl 4-(3-fluoro-4-(1-(4-(trifluoromethyl)phenyl)piperidin-4-yloxy)benzamido)piperidine-1-carboxylate], the EC50 is reported as < 1 µM.
With `O=C(NC1CCN(Cc2ccccc2)CC1)c1ccc(OC2CCN(Cc3ccc(Cl)cc3)CC2)c(F)c1` [5-64, N-(1-benzylpiperidin-4-yl)-4-(1-(4-chlorobenzyl)piperidin-4-yloxy)-3-fluorobenzamide] the EC50 was < 1 µM.
`O=C(NC1CCN(Cc2ccccc2)CC1)c1ccc(OC2CCN(Cc3ccc4c(c3)OCCO4)CC2)c(Cl)c1` [5-15, N-(1-benzylpiperidin-4-yl)-3-chloro-4-(1-((2,3-dihydrobenzo[b][1,4]dioxin-6-yl)methyl)piperidin-4-yloxy)benzamide] was tested, and the EC50 was < 1 µM.
For `O=C(NC1CCN(C(=O)c2ccc(F)cc2)CC1)c1ccc(OC2CCN(c3ccc(C(F)(F)F)cc3)CC2)c(F)c1` [5-31, 3-fluoro-N-(1-(4-fluorobenzoyl)piperidin-4-yl)-4-(1-(4-(trifluoromethyl)phenyl)piperidin-4-yloxy)benzamide], the EC50 was < 1 µM.
